{"source": "paper PMC5218480", "about": "(PLoS ONE, 2017)", "test_system": "MV-4-11 cells", "experiment": "Gene expression microarray analysis (Affymetrix PrimeView) and GSEA", "format": "cell-based, human", "design": "RFU PODN (11730768_x_at) / Fold change /veh PODN (11730768_x_at) / RFU LINC00158 (11744669_a_at) / Fold change /veh LINC00158 (11744669_a_at) / RFU DUSP10 (11751237_a_at) / Fold change /veh DUSP10 (11751237_a_at) / RFU ID3 (11757404_x_at) / Fold change /veh ID3 (11757404_x_at) / RFU PLEKHG5 (11737974_s_at) / Fold change /veh PLEKHG5 (11737974_s_at) / RFU LRRC4B (11730491_at) / Fold change /veh LRRC4B (11730491_at) / RFU GIMAP4 (11747438_a_at) / Fold change /veh GIMAP4 (11747438_a_at) / RFU KRT8 (11758183_x_at) / Fold change /veh KRT8 (11758183_x_at) / RFU CNN1 (11734310_a_at) / Fold change /veh CNN1 (11734310_a_at) / RFU VPS37D (11726825_at) / Fold change /veh VPS37D (11726825_at) / RFU C10orf10 (11716522_x_at) / Fold change /veh C10orf10 (11716522_x_at) / RFU KIR2DL2 /// KIR2DL4 /// KIR2DL5A /// KIR2DL5B /// KIR2DS1 /// KIR2DS2 /// KIR2DS3 /// KIR2DS4 /// KIR3DL3 /// KIR3DL3 /// KIR3DS1 (11738374_at) / Fold change /veh KIR2DL2 /// KIR2DL4 /// KIR2DL5A /// KIR2DL5B /// KIR2DS1 /// KIR2DS2 /// KIR2DS3 /// KIR2DS4 /// KIR3DL3 /// KIR3DL3 /// KIR3DS1 (11738374_at) / RFU C1QL1 (11718748_at) / Fold change /veh C1QL1 (11718748_at) / RFU TMPRSS4 (11747572_a_at) / Fold change /veh TMPRSS4 (11747572_a_at) / RFU HAMP (11756126_x_at) / Fold change /veh HAMP (11756126_x_at) / RFU RNFT2 (11725882_a_at) / Fold change /veh RNFT2 (11725882_a_at) / RFU NR4A2 (11747474_a_at) / Fold change /veh NR4A2 (11747474_a_at) / RFU ABCC12 (11746883_a_at) / Fold change /veh ABCC12 (11746883_a_at) / RFU TMEM136 (11760407_x_at) / Fold change /veh TMEM136 (11760407_x_at) / RFU CLDN22 /// WWC2 (11732394_at) / Fold change /veh CLDN22 /// WWC2 (11732394_at) / RFU HLA-DPB1 (11760878_x_at) / Fold change /veh HLA-DPB1 (11760878_x_at) / RFU SPINT1 (11716480_a_at) / Fold change /veh SPINT1 (11716480_a_at) / RFU GAP43 (11754022_s_at) / Fold change /veh GAP43 (11754022_s_at) / RFU A4GNT (11735810_at) / Fold change /veh A4GNT (11735810_at) / RFU PRB3 (11715151_x_at) / Fold change /veh PRB3 (11715151_x_at) / RFU TUBB4B (11761932_at) / Fold change /veh TUBB4B (11761932_at) / RFU CAPN14 (11732068_a_at) / Fold change /veh CAPN14 (11732068_a_at) / RFU TMCC2 (11721928_a_at) / Fold change /veh TMCC2 (11721928_a_at) / RFU IRGQ (11745062_a_at) / Fold change /veh IRGQ (11745062_a_at) / RFU FAM174B (11720279_a_at) / Fold change /veh FAM174B (11720279_a_at) / RFU TMPRSS4 (11748680_a_at) / Fold change /veh TMPRSS4 (11748680_a_at) / RFU FAM212B (11763350_a_at) / Fold change /veh FAM212B (11763350_a_at) / RFU PLEKHG5 (11743358_a_at) / Fold change /veh PLEKHG5 (11743358_a_at) / RFU ZSCAN30 (11745921_a_at) / Fold change /veh ZSCAN30 (11745921_a_at) / RFU CMKLR1 (11741424_a_at) / Fold change /veh CMKLR1 (11741424_a_at) / RFU LOC101060620 /// MAPK8IP1 (11723275_at) / Fold change /veh LOC101060620 /// MAPK8IP1 (11723275_at) / RFU SPTSSB (11747773_x_at) / Fold change /veh SPTSSB (11747773_x_at) / RFU PRSS12 (11739890_at) / Fold change /veh PRSS12 (11739890_at) / RFU BIN1 (11741810_x_at) / Fold change /veh BIN1 (11741810_x_at) / RFU WNT11 (11732464_a_at) / Fold change /veh WNT11 (11732464_a_at) / RFU C10orf10 (11716521_a_at) / Fold change /veh C10orf10 (11716521_a_at) / RFU C5orf56 (11738089_at) / Fold change /veh C5orf56 (11738089_at) / RFU CYB561 (11721691_x_at) / Fold change /veh CYB561 (11721691_x_at) / RFU ANKRD19P (11752326_a_at) / Fold change /veh ANKRD19P (11752326_a_at) / RFU OR2T12 /// OR2T33 /// OR2T8 (11738714_s_at) / Fold change /veh OR2T12 /// OR2T33 /// OR2T8 (11738714_s_at) / RFU VCAN (11748164_a_at) / Fold change /veh VCAN (11748164_a_at) / RFU JSRP1 (11732532_at) / Fold change /veh JSRP1 (11732532_at) / RFU KRTAP10-11 (11738290_x_at) / Fold change /veh KRTAP10-11 (11738290_x_at) / RFU MYO3A (11730013_a_at) / Fold change /veh MYO3A (11730013_a_at) / RFU EBF3 (11725865_a_at) / Fold change /veh EBF3 (11725865_a_at) / RFU CAMK2N1 (11719241_x_at) / Fold change /veh CAMK2N1 (11719241_x_at) / RFU C5orf56 (11738088_a_at) / Fold change /veh C5orf56 (11738088_a_at) / RFU OLFML3 (11715873_a_at) / Fold change /veh OLFML3 (11715873_a_at) / RFU LOC100653217 /// NTM (11731650_a_at) / Fold change /veh LOC100653217 /// NTM (11731650_a_at) / RFU MAPK11 (11762145_a_at) / Fold change /veh MAPK11 (11762145_a_at) / RFU FIZ1 (11724087_x_at) / Fold change /veh FIZ1 (11724087_x_at) / RFU OASL (11726364_x_at) / Fold change /veh OASL (11726364_x_at) / RFU SOX15 (11748057_x_at) / Fold change /veh SOX15 (11748057_x_at) / RFU CD79A (11719716_a_at) / Fold change /veh CD79A (11719716_a_at) / RFU HIST1H1D (11736915_at) / Fold change /veh HIST1H1D (11736915_at) / RFU CASKIN2 (11723855_a_at) / Fold change /veh CASKIN2 (11723855_a_at) / RFU LOC730098 (11760151_x_at) / Fold change /veh LOC730098 (11760151_x_at) / RFU OR4N2 (11742367_at) / Fold change /veh OR4N2 (11742367_at) / RFU PRRT2 (11749266_a_at) / Fold change /veh PRRT2 (11749266_a_at) / RFU SNX32 (11753110_a_at) / Fold change /veh SNX32 (11753110_a_at) / RFU CDHR5 (11726645_a_at) / Fold change /veh CDHR5 (11726645_a_at) / RFU RCAN1 (11760418_a_at) / Fold change /veh RCAN1 (11760418_a_at) / RFU FAM167A (11723789_a_at) / Fold change /veh FAM167A (11723789_a_at) / RFU FAM26E (11764081_at) / Fold change /veh FAM26E (11764081_at) / RFU ISYNA1 (11749810_s_at) / Fold change /veh ISYNA1 (11749810_s_at) / RFU ACY1 (11761880_at) / Fold change /veh ACY1 (11761880_at) / RFU 11764098_at / Fold change /veh 11764098_at / RFU SAMD14 (11745864_x_at) / Fold change /veh SAMD14 (11745864_x_at) / RFU NPB (11741838_a_at) / Fold change /veh NPB (11741838_a_at) / RFU TMPRSS6 (11731388_a_at) / Fold change /veh TMPRSS6 (11731388_a_at) / RFU KRTAP10-2 (11738614_at) / Fold change /veh KRTAP10-2 (11738614_at) / RFU ARHGAP8 /// PRR5-ARHGAP8 (11727945_x_at) / Fold change /veh ARHGAP8 /// PRR5-ARHGAP8 (11727945_x_at) / RFU KRTAP5-7 /// NADSYN1 (11734609_at) / Fold change /veh KRTAP5-7 /// NADSYN1 (11734609_at) / RFU RASL12 (11751679_a_at) / Fold change /veh RASL12 (11751679_a_at) / RFU CDKN2B (11736163_a_at) / Fold change /veh CDKN2B (11736163_a_at) / RFU PRF1 (11729649_at) / Fold change /veh PRF1 (11729649_at) / RFU, ZNF638 /// ZNF638-IT1 / Fold change vs veh, ZNF638 /// ZNF638-IT1 / RFU, PANK3 / Fold change vs veh, PANK3 / RFU, SH3YL1 / Fold change vs veh, SH3YL1 / RFU, ZEB2 / Fold change vs veh, ZEB2 / RFU, NRIP1 / Fold change vs veh, NRIP1 / RFU, PTTG1IP / Fold change vs veh, PTTG1IP / RFU, CAPN2 / Fold change vs veh, CAPN2 / RFU, MED14 / Fold change vs veh, MED14 / RFU, SNORA58 / Fold change vs veh, SNORA58 / RFU, C1orf63 / Fold change vs veh, C1orf63 / RFU, LRRFIP1 / Fold change vs veh, LRRFIP1 / RFU, NDUFAF7 / Fold change vs veh, NDUFAF7 / RFU, SLC12A2 / Fold change vs veh, SLC12A2 / RFU, IBTK / Fold change vs veh, IBTK / RFU, ESF1 / Fold change vs veh, ESF1 / Fold change vs veh, TMEM50B / RFU, TAOK1 / Fold change vs veh, TAOK1 / RFU, ACBD3 / Fold change vs veh, ACBD3 / RFU, TMA16 / Fold change vs veh, TMA16 / RFU, RWDD3 / Fold change vs veh, RWDD3 / RFU, BCAT1 / Fold change vs veh, BCAT1 / RFU, EDEM3 / Fold change vs veh, EDEM3 / RFU, TMEM33 / Fold change vs veh, TMEM33 / RFU, WDR75 / Fold change vs veh, WDR75 / RFU, AHCTF1 / Fold change vs veh, AHCTF1 / RFU, TFRC / Fold change vs veh, TFRC / RFU, ZDHHC17 / Fold change vs veh, ZDHHC17 / RFU, NOM1 / Fold change vs veh, NOM1 / RFU, ARL8B / Fold change vs veh, ARL8B / RFU, ZBTB11 / Fold change vs veh, ZBTB11 / RFU, TAMM41 / Fold change vs veh, TAMM41 / RFU, KIAA1704 /// LOC100996395 / Fold change vs veh, KIAA1704 /// LOC100996395 / RFU, ING1 / Fold change vs veh, ING1 / RFU, TRMT61B / Fold change vs veh, TRMT61B / RFU, FUBP3 / Fold change vs veh, FUBP3 / RFU, TP53 / Fold change vs veh, TP53 / RFU, TNKS2 / Fold change vs veh, TNKS2 / RFU, ZFP14 / Fold change vs veh, ZFP14 / RFU, ACTR2 / Fold change vs veh, ACTR2 / RFU, PPP3R1 / Fold change vs veh, PPP3R1 / RFU, PIK3R1 / Fold change vs veh, PIK3R1 / RFU, HNRNPA1 / Fold change vs veh, HNRNPA1 / RFU, RNF170 / Fold change vs veh, RNF170 / RFU, ZNF28 / Fold change vs veh, ZNF28 / RFU, RNGTT / Fold change vs veh, RNGTT / RFU, OGT / Fold change vs veh, OGT / RFU, BRD1 / Fold change vs veh, BRD1 / RFU, MARS / Fold change vs veh, MARS / RFU, ZNF655 / Fold change vs veh, ZNF655 / RFU, FAHD1 / Fold change vs veh, FAHD1 / RFU, BDP1 / Fold change vs veh, BDP1 / RFU, LRRCC1 / Fold change vs veh, LRRCC1 / RFU, ARID1A / Fold change vs veh, ARID1A / RFU, ZNF146 / Fold change vs veh, ZNF146 / RFU, ZNF330 / Fold change vs veh, ZNF330 / RFU, GPN3 / Fold change vs veh, GPN3 / RFU, C9orf123 / Fold change vs veh, C9orf123 / RFU, N4BP2L2 / Fold change vs veh, N4BP2L2 / RFU, ARFIP1 / Fold change vs veh, ARFIP1 / RFU, FAM179B / Fold change vs veh, FAM179B / RFU, BCL10 / Fold change vs veh, BCL10 / RFU, UHRF1BP1L / Fold change vs veh, UHRF1BP1L / RFU, BET1 / Fold change vs veh, BET1 / RFU, CNOT2 / Fold change vs veh, CNOT2 / RFU, ZNF268 / Fold change vs veh, ZNF268 / Fold change vs veh, ZNF507 / RFU, DGCR2 / Fold change vs veh, DGCR2 / RFU, WDSUB1 / Fold change vs veh, WDSUB1 / Fold change vs veh, HSP90B1 /// MIR3652 / RFU, ADSS / Fold change vs veh, ADSS / RFU, GK / Fold change vs veh, GK / RFU, ZNF148 / Fold change vs veh, ZNF148 / RFU, TAF9 / Fold change vs veh, TAF9 / RFU, SLC1A5 / Fold change vs veh, SLC1A5 / RFU, SLMO2 / Fold change vs veh, SLMO2 / RFU, ABCC4 / Fold change vs veh, ABCC4 / RFU, LOC101060439 /// RAP1B / Fold change vs veh, LOC101060439 /// RAP1B / RFU, RFX7 / Fold change vs veh, RFX7 / RFU, GTPBP10 / Fold change vs veh, GTPBP10 / RFU, CNEP1R1 / Fold change vs veh, CNEP1R1 / RFU, BIVM-ERCC5 /// ERCC5 / Fold change vs veh, BIVM-ERCC5 /// ERCC5 / RFU, ILF3 / Fold change vs veh, ILF3 / RFU 11762660_at / Fold change /veh 11762660_at / RFU VCAN (11757783_s_at) / Fold change /veh VCAN (11757783_s_at) / RFU DDX43 (11728927_at) / Fold change /veh DDX43 (11728927_at) / RFU KRT8 (11758188_x_at) / Fold change /veh KRT8 (11758188_x_at) / RFU NKD1 (11759106_at) / Fold change /veh NKD1 (11759106_at) / RFU SRD5A1 (11742802_a_at) / Fold change /veh SRD5A1 (11742802_a_at) / RFU TPSAB1 /// TPSB2 (11721975_s_at) / Fold change /veh TPSAB1 /// TPSB2 (11721975_s_at) / RFU GSTM3 (11746129_a_at) / Fold change /veh GSTM3 (11746129_a_at) / RFU IL23R (11737362_x_at) / Fold change /veh IL23R (11737362_x_at) / RFU TMEM51 (11727254_a_at) / Fold change /veh TMEM51 (11727254_a_at) / RFU PIWIL2 (11732686_x_at) / Fold change /veh PIWIL2 (11732686_x_at) / RFU ORM1 (11744905_x_at) / Fold change /veh ORM1 (11744905_x_at) / RFU CCDC152 (11743942_at) / Fold change /veh CCDC152 (11743942_at) / RFU ECM1 (11717891_a_at) / Fold change /veh ECM1 (11717891_a_at) / RFU IL23R (11748794_a_at) / Fold change /veh IL23R (11748794_a_at) / RFU TNFAIP8L3 (11732012_x_at) / Fold change /veh TNFAIP8L3 (11732012_x_at) / RFU MBOAT4 (11741988_at) / Fold change /veh MBOAT4 (11741988_at) / RFU 11764193_at / Fold change /veh 11764193_at / RFU TMEM53 (11763286_at) / Fold change /veh TMEM53 (11763286_at) / RFU MAGEB2 (11727129_at) / Fold change /veh MAGEB2 (11727129_at) / RFU TMEM200A (11744735_a_at) / Fold change /veh TMEM200A (11744735_a_at) / RFU CCDC152 (11751479_a_at) / Fold change /veh CCDC152 (11751479_a_at) / RFU FAM211A (11726209_a_at) / Fold change /veh FAM211A (11726209_a_at) / RFU RGS16 (11746705_a_at) / Fold change /veh RGS16 (11746705_a_at) / RFU VCAN (11755009_s_at) / Fold change /veh VCAN (11755009_s_at) / RFU RHOB (11743442_s_at) / Fold change /veh RHOB (11743442_s_at) / RFU RGS16 (11720943_a_at) / Fold change /veh RGS16 (11720943_a_at) / RFU RGS16 (11720944_at) / Fold change /veh RGS16 (11720944_at) / RFU, VPS4B / Fold change vs veh, VPS4B / RFU, CREB1 / Fold change vs veh, CREB1 / RFU, DNAJC13 / Fold change vs veh, DNAJC13 / RFU, GNAQ / Fold change vs veh, GNAQ / RFU, CDK5R1 / Fold change vs veh, CDK5R1 / RFU, ZRANB3 / Fold change vs veh, ZRANB3 / RFU, CUL4A / Fold change vs veh, CUL4A / RFU, CCNY / Fold change vs veh, CCNY / RFU, UFL1 / Fold change vs veh, UFL1 / RFU, COG3 / Fold change vs veh, COG3 / RFU, DIAPH2 / Fold change vs veh, DIAPH2 / RFU, SKA2 / Fold change vs veh, SKA2 / RFU, AFF3 / Fold change vs veh, AFF3 / RFU, LMF1 / Fold change vs veh, LMF1 / RFU, IPO11 / Fold change vs veh, IPO11 / RFU, DFFB / Fold change vs veh, DFFB / RFU, FOXP1 / Fold change vs veh, FOXP1 / RFU, CARD8 / Fold change vs veh, CARD8 / RFU, STRN3 / Fold change vs veh, STRN3 / RFU, ADK / Fold change vs veh, ADK / RFU, RASSF2 / Fold change vs veh, RASSF2 / RFU, WIPF1 / Fold change vs veh, WIPF1 / RFU, LARP1B / Fold change vs veh, LARP1B / RFU, RASA1 / Fold change vs veh, RASA1 / RFU, RB1 / Fold change vs veh, RB1 / RFU, PPFIA1 / Fold change vs veh, PPFIA1 / RFU, MAT2A / Fold change vs veh, MAT2A / RFU, CCT5 / Fold change vs veh, CCT5 / RFU, WDR92 / Fold change vs veh, WDR92 / RFU, CUX1 / Fold change vs veh, CUX1 / RFU, TTC7A / Fold change vs veh, TTC7A / RFU, TMEM135 / Fold change vs veh, TMEM135 / RFU, DEPTOR / Fold change vs veh, DEPTOR / RFU, CPM / Fold change vs veh, CPM / RFU, DNAJB6 / Fold change vs veh, DNAJB6 / RFU, CACNA2D3 / Fold change vs veh, CACNA2D3 / RFU, DTX4 / Fold change vs veh, DTX4 / RFU, TFCP2 / Fold change vs veh, TFCP2 / RFU, GMCL1 /// GMCL1P1 / Fold change vs veh, GMCL1 /// GMCL1P1 / RFU, AEBP2 / Fold change vs veh, AEBP2 / RFU, SNHG1 /// SNORD22 /// SNORD25 /// SNORD26 /// SNORD27 /// SNORD28 /// SNORD29 /// SNORD31 / Fold change vs veh, SNHG1 /// SNORD22 /// SNORD25 /// SNORD26 /// SNORD27 /// SNORD28 /// SNORD29 /// SNORD31 / Fold change (Aza/veh), C12orf56 (ProbeSet 11735607_a_at) / Fold change (ACY-1035/veh), C12orf56 (ProbeSet 11735607_a_at) / Fold change (Aza/veh), FGFR1OP (ProbeSet 11751329_s_at) / Fold change (ACY-1035/veh), FGFR1OP (ProbeSet 11751329_s_at) / Fold change (Aza/veh), VPS36 (ProbeSet 11739960_a_at) / Fold change (ACY-1035/veh), VPS36 (ProbeSet 11739960_a_at) / RFU SYPL1 (11715823_x_at) / Fold change /veh SYPL1 (11715823_x_at) / RFU IGFBP7 (11715501_s_at) / Fold change /veh IGFBP7 (11715501_s_at) / RFU REEP3 (11722064_at) / Fold change /veh REEP3 (11722064_at) / RFU IGLL1 (11728026_x_at) / Fold change /veh IGLL1 (11728026_x_at): dose or concentration left out as unconfirmed", "conditions": "MV-4-11 cells, 48 hours", "data": [{"smiles": "Nc1ccc(-c2cccs2)cc1NC(=O)c1ccc2c(c1)cc(C1CC1)n2CCN1CCOCC1", "note": "[ACY-1035]", "values": [{"measurement": "Fold change /veh LRRC4B (11730491_at)", "result": 1.07}]}]}
